Reference: PubChem BioAssay AID2060502 (Molecular Pharmacology Branch, DTP, NCI, 2025)

System: 885724-159-R-J1-PDC complex spheroid viability
Experiment: Anticancer human tumor 885724-159-R-J1-PDC patient-derived pancreatic adenocarcinoma cell line growth inhibition [GQUAD]
Conditions: for IC50: curve of first compound; for viability, T/C: stronger effect = lower value
Method in brief: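 Tumor cells were grown as complex spheroids with HUVEC endothelial cells and mesenchymal stem cells as stroma. G-quadruplex stabilizers were combined with targeted agents over half-log dilutions from near the clinical Cmax, or from 10 microM.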

[1] = second compound 0.0316 µM, first compound 0.0316 µM
[2] = second compound 0.0316 µM, first compound 0.1 µM
[3] = second compound 0.0316 µM, first compound 0.316 µM
[4] = second compound 0.0316 µM, first compound 1 µM
[5] = second compound 0.0316 µM, first compound 3.16 µM
[6] = second compound 0.0316 µM, first compound 10 µM
[7] = second compound 0.1 µM, first compound 0.0316 µM
[8] = second compound 0.1 µM, first compound 0.1 µM
[9] = second compound 0.1 µM, first compound 0.316 µM
[10] = second compound 0.1 µM, first compound 1 µM
[11] = second compound 0.1 µM, first compound 3.16 µM
[12] = second compound 0.1 µM, first compound 10 µM
[13] = second compound 0.316 µM, first compound 0.0316 µM
[14] = second compound 0.316 µM, first compound 0.1 µM
[15] = second compound 0.316 µM, first compound 0.316 µM
[16] = second compound 0.316 µM, first compound 1 µM
[17] = second compound 0.316 µM, first compound 3.16 µM
[18] = second compound 0.316 µM, first compound 10 µM
[19] = second compound 1 µM, first compound 0.0316 µM
[20] = second compound 1 µM, first compound 0.1 µM
[21] = second compound 1 µM, first compound 0.316 µM
[22] = second compound 1 µM, first compound 1 µM
[23] = second compound 1 µM, first compound 3.16 µM
[24] = second compound 1 µM, first compound 10 µM
[25] = second compound 3.16 µM, first compound 0.0316 µM
[26] = second compound 3.16 µM, first compound 0.1 µM
[27] = second compound 3.16 µM, first compound 0.316 µM
[28] = second compound 3.16 µM, first compound 1 µM
[29] = second compound 3.16 µM, first compound 3.16 µM
[30] = second compound 3.16 µM, first compound 10 µM
[31] = second compound 10 µM, first compound 0.0316 µM
[32] = second compound 10 µM, first compound 0.1 µM
[33] = second compound 10 µM, first compound 0.316 µM
[34] = second compound 10 µM, first compound 1 µM
[35] = second compound 10 µM, first compound 3.16 µM
[36] = second compound 10 µM, first compound 10 µM
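Also: spheroids exposed to agents for seven days before readout.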
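For viability, T/C in this document: percent of vehicle control viability where 100% = DMSO wells.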

Work on `CC(=O)O[C@H]1C(=O)[C@@]2(C)[C@H]([C@H](OC(=O)c3ccccc3)[C@]3(O)C[C@H](OC(=O)[C@H](O)[C@@H](NC(=O)c4ccccc4)c4ccccc4)C(C)=C1C3(C)C)[C@]1(OC(C)=O)CO[C@@H]1C[C@@H]2O` + Cc1[nH]c2ccc(F)cc2c1-c1nc2c3cccnc3c3ncccc3c2[nH]1 yielded an IC50 (second compound 0.0316 µM) greater than 10 µM, an IC50 (second compound 0.1 µM) greater than 10 µM and an IC50 (second compound 0.316 µM) greater than 10 µM. The IC50 (second compound 1 µM) was greater than 10 µM, the IC50 (second compound 3.16 µM) was less than 0.0316 µM and the IC50 (second compound 10 µM) was greater than 10 µM. The viability, T/C [1] was 102%, the viability, T/C [2] was 76.5% and the viability, T/C [3] was 85.7%. For the same molecule, the viability, T/C [4] was 91.4%, the viability, T/C [5] was 81.6% and the viability, T/C [6] was 83.3%. For the same molecule, the viability, T/C [7] was 112%, the viability, T/C [8] was 83.2% and the viability, T/C [9] was 78%. For the same molecule, the viability, T/C [10] was 84.8%, the viability, T/C [11] was 86.5% and the viability, T/C [12] was 87%. The viability, T/C [13] was 87.8%, the viability, T/C [14] was 77.8% and the viability, T/C [15] was 82.8%. The viability, T/C [16] was 79.6%, the viability, T/C [17] was 80.8% and the viability, T/C [18] was 80.2%. For the same molecule, the viability, T/C [19] was 69.5%, the viability, T/C [20] was 54.7% and the viability, T/C [21] was 61.8%. The viability, T/C [22] was 51.1%, the viability, T/C [23] was 78.6% and the viability, T/C [24] was 55.5%. The viability, T/C [25] was 16.7%, the viability, T/C [26] was 6.91% and the viability, T/C [27] was 7.17%. For the same molecule, the viability, T/C [28] was 8.73%, the viability, T/C [29] was 10% and the viability, T/C [30] was 5.61%. The viability, T/C [31] was 56.7%, the viability, T/C [32] was 53.2% and the viability, T/C [33] was 54.5%. It also gave a viability, T/C [34] of 55%, a viability, T/C [35] of 68.5% and a viability, T/C [36] of 59.2%.
Molecule `CC[C@@]1(O)C(=O)OCc2c1cc1n(c2=O)Cc2cc3c(CN(C)C)c(O)ccc3nc2-1` + Cc1[nH]c2ccc(F)cc2c1-c1nc2c3cccnc3c3ncccc3c2[nH]1 has an IC50 (second compound 0.0316 µM) greater than 0.316 µM, an IC50 (second compound 0.1 µM) greater than 0.316 µM and an IC50 (second compound 0.316 µM) greater than 0.316 µM. The IC50 (second compound 1 µM) was greater than 0.316 µM, the IC50 (second compound 3.16 µM) was less than 0.000999 µM and the IC50 (second compound 10 µM) was greater than 0.316 µM. For the same molecule, the viability, T/C (second compound 0.0316 µM, first compound 0.000999 µM) was 90.3%, the viability, T/C (second compound 0.0316 µM, first compound 0.00316 µM) was 114% and the viability, T/C (second compound 0.0316 µM, first compound 0.00999 µM) was 98.9%. For the same molecule, the viability, T/C [1] was 97.6%, the viability, T/C (second compound 0.0316 µM, first compound 0.0999 µM) was 84.2% and the viability, T/C [3] was 68.7%. For the same molecule, the viability, T/C (second compound 0.1 µM, first compound 0.000999 µM) was 98.9%, the viability, T/C (second compound 0.1 µM, first compound 0.00316 µM) was 104% and the viability, T/C (second compound 0.1 µM, first compound 0.00999 µM) was 98%. The viability, T/C [7] was 93.6%, the viability, T/C (second compound 0.1 µM, first compound 0.0999 µM) was 87.8% and the viability, T/C [9] was 74.6%. The viability, T/C (second compound 0.316 µM, first compound 0.000999 µM) was 85.5%, the viability, T/C (second compound 0.316 µM, first compound 0.00316 µM) was 83.9% and the viability, T/C (second compound 0.316 µM, first compound 0.00999 µM) was 96.7%. The viability, T/C [13] was 78.2%, the viability, T/C (second compound 0.316 µM, first compound 0.0999 µM) was 80.8% and the viability, T/C [15] was 69.2%. For the same molecule, the viability, T/C (second compound 1 µM, first compound 0.000999 µM) was 80.8%, the viability, T/C (second compound 1 µM, first compound 0.00316 µM) was 75.7% and the viability, T/C (second compound 1 µM, first compound 0.00999 µM) was 67.7%. The viability, T/C [19] was 75.5%, the viability, T/C (second compound 1 µM, first compound 0.0999 µM) was 67% and the viability, T/C [21] was 60.5%. The viability, T/C (second compound 3.16 µM, first compound 0.000999 µM) was 42.8%, the viability, T/C (second compound 3.16 µM, first compound 0.00316 µM) was 30.9% and the viability, T/C (second compound 3.16 µM, first compound 0.00999 µM) was 35.1%. The viability, T/C [25] was 34.2%, the viability, T/C (second compound 3.16 µM, first compound 0.0999 µM) was 33.3% and the viability, T/C [27] was 23.6%. It also gave a viability, T/C (second compound 10 µM, first compound 0.000999 µM) of 64.1%, a viability, T/C (second compound 10 µM, first compound 0.00316 µM) of 72.6% and a viability, T/C (second compound 10 µM, first compound 0.00999 µM) of 70.2%. It also gave a viability, T/C [31] of 68.3%, a viability, T/C (second compound 10 µM, first compound 0.0999 µM) of 63.4% and a viability, T/C [33] of 49.1%.
`COc1cc(C2c3cc4c(cc3C(OC3OC5COC(C)OC5C(O)C3O)C3COC(=O)C23)OCO4)cc(OC)c1O` (stereo unspecified) + Cc1[nH]c2ccc(F)cc2c1-c1nc2c3cccnc3c3ncccc3c2[nH]1 showed an IC50 (second compound 0.0316 µM) greater than 10 µM, an IC50 (second compound 0.1 µM) greater than 10 µM and an IC50 (second compound 0.316 µM) greater than 10 µM. The IC50 (second compound 1 µM) was greater than 10 µM, the IC50 (second compound 3.16 µM) was less than 0.0316 µM and the IC50 (second compound 10 µM) was greater than 10 µM. For the same molecule, the viability, T/C [1] was 92.8%, the viability, T/C [2] was 88.7% and the viability, T/C [3] was 93.8%. It also gave a viability, T/C [4] of 94.9%, a viability, T/C [5] of 79.2% and a viability, T/C [6] of 88.5%. For the same molecule, the viability, T/C [7] was 102%, the viability, T/C [8] was 117% and the viability, T/C [9] was 93.1%. For the same molecule, the viability, T/C [10] was 103%, the viability, T/C [11] was 80.2% and the viability, T/C [12] was 80.2%. It also gave a viability, T/C [13] of 103%, a viability, T/C [14] of 87.2% and a viability, T/C [15] of 80.7%. It also gave a viability, T/C [16] of 83.2%, a viability, T/C [17] of 79.7% and a viability, T/C [18] of 72.3%. The viability, T/C [19] was 89.5%, the viability, T/C [20] was 69.8% and the viability, T/C [21] was 75%. The viability, T/C [22] was 69.1%, the viability, T/C [23] was 77.8% and the viability, T/C [24] was 61%. The viability, T/C [25] was 53.2%, the viability, T/C [26] was 32.2% and the viability, T/C [27] was 45.4%. The viability, T/C [28] was 43.7%, the viability, T/C [29] was 35.8% and the viability, T/C [30] was 26.5%. The viability, T/C [31] was 68.3%, the viability, T/C [32] was 69.3% and the viability, T/C [33] was 70.9%. For the same molecule, the viability, T/C [34] was 68%, the viability, T/C [35] was 70.6% and the viability, T/C [36] was 55.4%.
